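Briefly, cells in 96-well plates were exposed to five compound concentrations for 48 h, and endpoints were estimated by linear interpolation. GI50: concentration for 50% inhibition of growth. TGI denotes the concentration required for complete inhibition of growth.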

Test systems include CAKI-1 renal; DU-145 prostate; HCT-15 colon; MALME-3M melanoma; NCI-H460 lung; OVCAR-5 ovarian; OVCAR-8 ovarian; PC-3 prostate; SN12C renal; UO-31 renal.
Assay in all cases: inhibition of tumour cell growth, NCI panel, 48 h

In the case of `Cn1nc2ccc(Nc3cc(=O)[nH]c4ccc5nn(C)nc5c34)cc2n1`, the TGI in the test on CAKI-1 renal, in the test with DU-145 prostate, in the test with HCT-15 colon, with MALME-3M melanoma, in the test on NCI-H460 lung and in the test with OVCAR-5 ovarian was over 100 µM in each case. Further, the TGI with OVCAR-8 ovarian, in the test on PC-3 prostate, with SN12C renal and in the test with UO-31 renal was over 100 µM throughout.

For the molecule `COC(=O)[C@@H]1CS(=O)(=O)C(C(C)C)N1C(C)=O` (some centres not stated), the TGI in the test with CAKI-1 renal, in the test with DU-145 prostate, with HCT-15 colon, in the test on MALME-3M melanoma, in the test on NCI-H460 lung and in the test with OVCAR-5 ovarian was over 100 µM in each case. The TGI in the test with OVCAR-8 ovarian, with PC-3 prostate, in the test on SN12C renal and in the test with UO-31 renal was over 100 µM each time.

In the case of `CC[C@@]1(O)C(=O)OCc2c1cc1n(c2=O)Cc2c-1nc1ccc(O)cc1c2[Si](C)(C)C(C)(C)C`, the TGI with CAKI-1 renal is under 0.0137 µM; in the test on DU-145 prostate it was 0.0142 µM; with HCT-15 colon, 8.81 µM; in the test with MALME-3M melanoma, 0.179 µM; in the test with NCI-H460 lung, 0.0263 µM; in the test on OVCAR-5 ovarian, 2.58 µM. Moreover, the TGI with OVCAR-8 ovarian was over 42.3 µM; in the test on PC-3 prostate, 2.9 µM; with SN12C renal, under 0.0233 µM; in the test with UO-31 renal it was 0.0357 µM.

Take `CCOC(=O)c1ccc(Nc2nc3ccccc3nc2-c2cccs2)cc1`: the TGI in the test on CAKI-1 renal, in the test with DU-145 prostate, in the test with HCT-15 colon, in the test on MALME-3M melanoma, in the test on NCI-H460 lung and with OVCAR-5 ovarian was over 100 µM in each case. The TGI in the test on OVCAR-8 ovarian was over 100 µM; with PC-3 prostate, over 100 µM; in the test on SN12C renal it was 99.3 µM; in the test with UO-31 renal it was over 100 µM.

Take `O=C(O)CSc1ccccc1C(=O)O`: the TGI was over 100 µM in the test with CAKI-1 renal; over 100 µM in the test with DU-145 prostate; over 100 µM in the test with HCT-15 colon; over 100 µM in the test on MALME-3M melanoma; 38.1 µM with NCI-H460 lung; over 100 µM in the test on OVCAR-5 ovarian. Besides, the TGI in the test with OVCAR-8 ovarian, in the test with PC-3 prostate, in the test on SN12C renal and in the test on UO-31 renal was over 100 µM in each case.

For the molecule `c1nc(NCCc2cnc[nH]2)c2[nH]cnc2n1`, the TGI in the test with CAKI-1 renal, with DU-145 prostate, with HCT-15 colon, in the test on MALME-3M melanoma, with NCI-H460 lung and in the test with OVCAR-5 ovarian was over 100 µM throughout. In addition, the TGI with OVCAR-8 ovarian, in the test with PC-3 prostate, in the test with SN12C renal and with UO-31 renal was over 100 µM each time.

Regarding `O=c1[nH]nc(-c2ccccc2)n1/N=C/c1ccc([N+](=O)[O-])o1`, the TGI in the test with CAKI-1 renal is 28.2 µM; with DU-145 prostate, 17.5 µM; in the test with HCT-15 colon it was 17.3 µM; with MALME-3M melanoma, 9.38 µM; in the test on NCI-H460 lung, over 22.6 µM; in the test with OVCAR-5 ovarian, 31.5 µM. The TGI was over 30.3 µM with PC-3 prostate, 13.5 µM in the test with SN12C renal and 12.9 µM with UO-31 renal.

On to `O=c1c2cc(C(F)(F)F)ccc2sc2c(NCCCNCCO)nc3ccccc3c12`, for which the GI50 in the test with CAKI-1 renal is 1.48 µM; with DU-145 prostate, 1.74 µM; with HCT-15 colon it was 1.32 µM; with MALME-3M melanoma, 1.59 µM; in the test with NCI-H460 lung it was 1.22 µM; in the test with OVCAR-5 ovarian, 1.63 µM. The values for the GI50 with PC-3 prostate, with SN12C renal and in the test on UO-31 renal were 1.69 µM, 1.64 µM and 1.37 µM, respectively. The TGI was 2.81 µM in the test on CAKI-1 renal; 3.23 µM in the test on DU-145 prostate; 2.77 µM in the test on HCT-15 colon; 3.09 µM in the test on MALME-3M melanoma; 2.57 µM with NCI-H460 lung; 3.04 µM with OVCAR-5 ovarian. In addition, the figures for the TGI in the test with PC-3 prostate, in the test with SN12C renal and in the test with UO-31 renal were 3.24 µM, 3.12 µM and 2.74 µM, respectively.

As for `O=C(Nc1sccc1S(=O)(=O)c1ccc(Cl)cc1)c1ccc(F)cc1F`, the TGI in the test with CAKI-1 renal was 65.9 µM; with DU-145 prostate it was over 100 µM; with HCT-15 colon it was over 100 µM; in the test with MALME-3M melanoma it was 96.4 µM; in the test on OVCAR-5 ovarian it was 81.3 µM; in the test on OVCAR-8 ovarian, over 100 µM. Also, the figures for the TGI in the test with PC-3 prostate, in the test on SN12C renal and in the test with UO-31 renal were over 100 µM, over 100 µM and 47.7 µM, respectively.

For the molecule `O=P1(N2CCOCC2)OCCO1`, the TGI with CAKI-1 renal, with DU-145 prostate, with HCT-15 colon, in the test on MALME-3M melanoma, in the test on NCI-H460 lung and with OVCAR-5 ovarian was over 100 µM each time. For the same molecule, the TGI in the test with PC-3 prostate, in the test on SN12C renal and with UO-31 renal was over 100 µM in each case.

On to `FC(F)(F)c1cc(N(C2c3ccccc3C=Cc3ccccc32)P(Cl)Cl)cc(C(F)(F)F)c1`, for which the TGI turned out to be 59 µM in the test on CAKI-1 renal; 40.3 µM in the test with DU-145 prostate; 45.5 µM with HCT-15 colon; 36 µM with MALME-3M melanoma; 49.6 µM in the test with OVCAR-5 ovarian; 35.7 µM in the test on OVCAR-8 ovarian. The TGI with PC-3 prostate was 78.1 µM; with SN12C renal, 32.7 µM; in the test with UO-31 renal, 33.4 µM.

As for `O=C(c1ccccc1)c1ccc2nc(-c3c(Cl)c(Cl)c(Cl)c(Cl)c3-c3nnc(-c4ccccc4)o3)[nH]c2c1`, the TGI with CAKI-1 renal, with DU-145 prostate, with HCT-15 colon, in the test on MALME-3M melanoma, with OVCAR-5 ovarian and in the test on OVCAR-8 ovarian was over 100 µM in each case. Besides, the TGI was over 100 µM in the test on PC-3 prostate, 81.7 µM with SN12C renal and over 100 µM in the test with UO-31 renal.

In the case of `N#Cc1c(-c2ccc(Cl)cc2)cc(-c2ccc(Nc3ccnc4cc(Cl)ccc34)cc2)[nH]c1=O`, the TGI in the test with CAKI-1 renal, with DU-145 prostate, in the test with HCT-15 colon, in the test on MALME-3M melanoma, in the test with NCI-H460 lung and with OVCAR-5 ovarian was over 100 µM throughout. The TGI with OVCAR-8 ovarian, in the test with PC-3 prostate and in the test with UO-31 renal was over 100 µM throughout.

The values are drawn from PubChem BioAssay (NCI).
